{
  "source": "patent US11633443B2",
  "about": "“Algal extract comprising sulphated and non-sulphated polyanionic polysaccharides and uses thereof” (Amadeite, priority 2012, dated 2023)",
  "system": "adult male Wistar rats",
  "assay": "Behavioural despair test (BDT)",
  "type": "in vivo, rat",
  "procedure": "The anti-depressant effects of an algal extract according to the invention (AE), administered orally as a preventive treatment with 3 doses (10, 20 and 40 mg/kg/d) were evaluated in adult male Wistar rats in the behavioural despair test (BDT).\nThe extract was daily administered as a semi-chronic treatment for 14 days. The effects of the extract were evaluated in the BDT on groups of 12 rats as compared with a control batch treated with the carrier (spring water) and a reference batch treated with Imipramine at the dose of 10 mg/kg/d.\nSixty male Wistar rats (Charles River Laboratories, France) weighing from 200-225 g were used. Upon receiving them, the rats were marked and distributed in groups of 4 in polycarbonate cages of the F type (48×27×20 cm, U.A.R., 91-Epinay-Sur-Orge, France). The animals were housed in an air-conditioned animal housing facility, at a temperature of 22±2° C. and a relative humidity of 50±20%. The rats had standard feed 2016 (Harlan, Gannat, France) and drink ad libitum. They were subject to a reverse light-darkness cycle of 12 hours.\nAfter getting used to the conditions of the laboratory for one week, the rats were weighed and randomized according to their weight in 5 treatment groups (n=12/group).\nThe experimental devices consisted in Plexiglas cylinders with a height of 50 cm and a diameter of 20 cm filled with water at 25° C. up to a height of 30 cm.\nAfter 13 days of daily treatment with the products to be tested, the rats were placed at D14 in the devices for a period of 15 minutes in order to evaluate the immobility time of each animal. Immediately after this first test, the rats received their 14th treatment.\nAt D15, the rats received two treatments: the first, 5 hours before the test and the second 1 hour before the test. This procedure is usually used in the literature for testing the efficiency of a product against depression. The test was conducted under the same conditions as the day before for a period of 5 minutes.\nThe recorded immobility duration during the first 5 minutes of both tests (at D14 and D15) reflects the capacity of the animal of resigning itself when it is confronted with a situation from which it cannot escape. This resignation behaviour is assimilated with depression.\nThe product is an AE (algal extract) as a powder representing a freeze-dried and crushed concentrated fraction of a water-soluble algal extract prepared according to Example no. 1. The extract to be tested was dissolved in spring water and was administered to the rats orally at one of the 3 tested doses for 15 successive days with an administration volume of 5 ml/kg. The animals were weighed every two or three days in order to adapt their specific treatments to their weight. Their food and water intakes were noted every two or three days during the whole duration of the study.\nThe animals of the Reference group receive daily 10 mg/kg/d of Imipramine hydrochloride (Sigma Aldrich) dissolved in spring water with an administration volume of 5 ml/kg.\nANOVA in parametric mode was applied, followed, in the case of heterogeneity, by comparisons by means of the non-paired t-test for comparing the treated groups with the Carrier group and the Reference group.\nPaired ANOVA was used, followed, in the case of heterogeneity, by comparisons with the paired t-test for two by two comparisons of repeated measurements of BDT in each of the groups.",
  "note": "Entries after “also recorded” stand apart in the source; their conditions may differ. Counter-ions that a name gives are not always drawn.",
  "data": [
    {"smiles": "CN(C)CCCN1c2ccccc2CCc2ccccc21", "note": "[Imipramine, Imipramine hydrochloride]", "values": [
      {"measurement": "immobility time at D15 compared with the Carrier (in words)", "setting": "10 mg/kg/d", "value": "significantly shorter"},
      {"measurement": "Immobility duration in the behavioural despair test at D15 (Average ± ESM)", "setting": "10 mg/kg/d orally, 5 minutes test, n = 12", "value": "3.8 ± 1.0", "unit": "s"},
      {"measurement": "Immobility duration in the behavioural despair pre-test at D14 (Average ± SME)", "setting": "10 mg/kg/d orally, first 5 minutes, n = 12", "value": "16.3 ± 4.6", "unit": "s"},
      {"measurement": "change of immobility time between D14 and D15 (in words)", "setting": "10 mg/kg, hydrochloride", "value": "significantly decrease; also recorded: significantly reduced"},
      {"measurement": "immobility duration at D14: difference between Carrier, Imipramine and AE groups", "setting": "Imipramine 10 mg/kg, AE at the three tested doses (10, 20, 40 mg/kg)", "value": "no significant difference"}
    ]}
  ]
}
